Source: ChEMBL document CHEMBL1127991, “Design, synthesis and evaluation of dual domain FKBP ligands” (Bioorg Med Chem Lett, 1994)

Columns and labels:
[1] = biological target: T1, Peptidyl-prolyl cis-trans isomerase FKBP1A (Homo sapiens, UniProt P62942); test: Compound was tested for inhibitory activity against FK506 binding protein 12 (FKBP12); conditions: read-out: Ki app
[2] = Immunosuppressant-like activity in an in vitro splenocyte mitogenesis assay at concentration up to 10 uM; ND means not detected; assay type: functional
[3] = biological target: T1, Peptidyl-prolyl cis-trans isomerase FKBP1A; test: Compound was tested for inhibitory activity against FK506 binding protein 12 (FKBP12); Value ranges from 190-900 nM; conditions: read-out: Ki app
[4] = Immunosuppressant-like activity in an in vitro splenocyte mitogenesis assay at concentration up to 10 uM; assay type: functional

T1 sequence (P62942 whole entry): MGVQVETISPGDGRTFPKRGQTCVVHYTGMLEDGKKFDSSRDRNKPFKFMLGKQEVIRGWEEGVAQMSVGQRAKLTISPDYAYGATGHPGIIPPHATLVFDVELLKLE

Compound	Ki [1] [nM]	IC50 [2]	other results
C=CC[C@@H]1/C=C(\C)C[C@H](C)C(=O)OCCCC(C)(C)C(=O)C(=O)N2CCCC[C@H]2C(=O)OCCCOC1=O	400		
C=CC[C@@H]1/C=C(\C)C[C@H](C)C(=O)OCC(C)(C)C(=O)C(=O)N2CCCC[C@H]2C(=O)O[C@H](CCc2ccccc2)[C@H](C)COC1=O	6000		
CC1(C)COC(=O)CCCCCCCCC(=O)c2cccc(c2)C(CCc2ccccc2)OC(=O)[C@@H]2CCCCN2C(=O)C1=O (stereo partly drawn)	20		
CC1(C)COC(=O)CCCCC(=O)/C=C/C(C)(C)[C@@H](CCc2ccccc2)OC(=O)[C@@H]2CCCCN2C(=O)C1=O	175		
CC1(C)COC(=O)CCCCC(=O)CCC(C)(C)[C@@H](CCc2ccccc2)OC(=O)[C@@H]2CCCCN2C(=O)C1=O	25		
C=CC[C@@H]1/C=C(\C)C[C@H](C)C(=O)OCC(C)(C)C(=O)C(=O)N2CCCC[C@H]2C(=O)OCCCOC1=O	130		
C=CC[C@@H]1/C=C(\C)C[C@H](C)C(=O)OCCCC(C)(C)C(=O)C(=O)N2CCCC[C@H]2C(=O)O[C@H](CCc2ccccc2)[C@H](C)COC1=O	> 5000		
C=CC[C@@H]1/C=C(\C)C[C@H](C)C[C@H](OC)[C@H]2O[C@@](O)(C(=O)C(=O)N3CCCC[C@H]3C(=O)O[C@H](/C(C)=C/[C@@H]3CC[C@@H](O)[C@H](OC)C3)[C@H](C)[C@@H](O)CC1=O)[C@H](C)C[C@@H]2OC [TACROLIMUS ANHYDROUS]			IC50 [4]: 1 nM

Continued, in another order:

Ki [1] [nM]	IC50 [2]	Compound	other results
5	Not detected	CCC(C)(C)C(=O)C(=O)N1CCCC[C@H]1C(=O)O[C@H](CCc1ccccc1)c1cccc(C(=O)c2ccccc2)c1	
	Not detected	CCC(C)(C)C(=O)C(=O)N1CCCC[C@H]1C(=O)O[C@H](CCc1ccccc1)C(C)(C)/C=C/C(=O)c1ccccc1	Ki [3]: 190 nM
	Not detected	CCCC(CCC)C(=O)/C=C/C(C)(C)[C@@H](CCc1ccccc1)OC(=O)[C@@H]1CCCCN1C(=O)C(=O)C(C)(C)CC	Ki [3]: 190 nM
340	Not detected	CCC(C)(C)C(=O)C(=O)N1CCCC[C@H]1C(=O)O[C@H](CCc1ccccc1)C(C)(C)/C=C/C(=O)C1CCCCC1	
5	Not detected	C=CCN(CC=C)C(=O)c1cccc([C@@H](CCc2ccccc2)OC(=O)[C@@H]2CCCCN2C(=O)C(=O)C(C)(C)CC)c1	
